Test results: article PMC9954641, “Molecular Insight into Drug Resistance Mechanism Conferred by Aberrant PIK3CD Splice Variant in African American Prostate Cancer” (Cancers, 2023)
Read-outs that look alike come from different tables or passages of the source.

Assays:
Assay type in all cases: biochemical
[1] = target: T1, PI3Kδ-L (full-length PI3Kδ) (Homo sapiens, UniProt O00329); experiment: cell-free PI3 kinase activity assay at […]; also ATP-competitive binding assay ([…] less ATP bound)
T1 construct: gene PIK3CD; full-length PI3Kδ-L, V5-His tagged, Ni-NTA purified from transfected LNCaP and MDA PCa 2b cells
T1 sequence (O00329 1-1044): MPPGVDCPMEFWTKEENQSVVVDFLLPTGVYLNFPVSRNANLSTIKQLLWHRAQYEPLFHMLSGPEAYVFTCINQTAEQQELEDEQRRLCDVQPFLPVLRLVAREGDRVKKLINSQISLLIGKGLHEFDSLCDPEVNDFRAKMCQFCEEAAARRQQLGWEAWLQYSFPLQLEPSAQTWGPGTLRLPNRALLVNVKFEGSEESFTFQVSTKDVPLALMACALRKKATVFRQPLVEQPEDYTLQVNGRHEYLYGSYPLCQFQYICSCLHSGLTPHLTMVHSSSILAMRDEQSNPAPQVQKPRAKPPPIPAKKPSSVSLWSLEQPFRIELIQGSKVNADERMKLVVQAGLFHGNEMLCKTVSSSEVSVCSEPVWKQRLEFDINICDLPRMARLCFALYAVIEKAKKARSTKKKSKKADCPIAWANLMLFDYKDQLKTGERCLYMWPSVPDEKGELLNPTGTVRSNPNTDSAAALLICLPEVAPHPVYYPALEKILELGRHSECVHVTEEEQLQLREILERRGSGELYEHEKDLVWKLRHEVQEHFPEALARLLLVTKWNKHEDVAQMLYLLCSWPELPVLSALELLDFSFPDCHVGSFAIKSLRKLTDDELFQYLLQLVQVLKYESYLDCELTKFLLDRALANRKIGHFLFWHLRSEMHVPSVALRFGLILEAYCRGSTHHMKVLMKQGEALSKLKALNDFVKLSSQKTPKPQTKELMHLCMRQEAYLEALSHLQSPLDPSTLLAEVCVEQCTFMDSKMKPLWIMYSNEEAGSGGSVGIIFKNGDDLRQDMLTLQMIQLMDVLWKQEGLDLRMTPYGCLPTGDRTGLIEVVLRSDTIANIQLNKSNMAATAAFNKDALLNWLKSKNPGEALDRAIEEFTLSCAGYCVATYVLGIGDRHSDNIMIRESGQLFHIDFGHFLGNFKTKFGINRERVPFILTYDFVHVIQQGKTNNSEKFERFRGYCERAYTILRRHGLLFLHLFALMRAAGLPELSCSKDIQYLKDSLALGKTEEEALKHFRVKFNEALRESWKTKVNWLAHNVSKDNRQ

[2] = target: T1, PI3Kδ-L (full-length PI3Kδ); experiment: as above; remark: listed apart in the source
[3] = target: T1, PI3Kδ-L (full-length PI3Kδ); experiment: cell-free PI3 kinase activity assay at […] (no effect at […] on MDA PCa 2b-derived protein); also ATP-competitive binding assay ([…] less ATP bound)

For Cn1c(=O)n(-c2ccc(C(C)(C)C#N)cc2)c2c3cc(-c4cnc5ccccc5c4)ccc3ncc21 [Dactolisib], the “cell-free PI3 kinase activity assay at 1 and 10 μM; also ATP-competitive binding” value [1] was “Idelalisib, Seletalisib, Wortmannin, and Dactolisib effectively suppressed the PI3Kδ-L activities”.

[O-][n+]1cccc(-c2nc3c(Cl)cccc3cc2[C@@H](Nc2ncnc3cccnc23)C(F)(F)F)c1 [Seletalisib] was tested, and the “cell-free PI3 kinase activity assay at 1 and 10 μM; also ATP-competitive binding” value [2] was “Idelalisib, Seletalisib, Wortmannin, and Dactolisib effectively suppressed the PI3Kδ-L activities”.

In the case of COC[C@H]1OC(=O)c2coc3c2[C@@]1(C)C1=C(C3=O)[C@@H]2CCC(=O)[C@@]2(C)C[C@H]1OC(C)=O [Wortmannin], the “cell-free PI3 kinase activity assay at 1 and 10 μM (no effect at 1 μM on MDA PCa)” value [3] is reported as “Idelalisib, Seletalisib, Wortmannin, and Dactolisib effectively suppressed the PI3Kδ-L activities”.
